From patent publication US4374149A, “α-{[(Arylalkyl)amino]alkyl}-4-hydroxy-3-(lower-alkylsul finyl)benzenemethanols” (Sterling Drug Inc., priority 1978, dated 1983)
Where a name gives a salt, the structure may show the parent alone.

Experiments:
Format in all cases: in vivo
β-adrenergic = β-adrenergic blocking activity, inhibition of isoproterenol-elicited heart rate increase in pentobarbitalized dog; settings: i.v.; for Dog β-blockade AED50 (approximate intravenous dose for 50% inhibition of isoproterenol-elicited heart rate increase): pentobarbitalized dog
Experimental: The β-adrenergic blocking activity was determined in the pentobarbitalized dog as judged by the ability of the test compound to inhibit the elevation in heart rate elicited by a 0.5 mcg./kg. i.v. injection of isoproterenol.
^e AED50 = approximate intravenous dose required to cause 50%

systolic blood pressure = assay: Antihypertensive activity, reduction in systolic blood pressure, single oral medication, unanesthetized spontaneous hypertensive rat; settings: P.O.; for Antihypertensive activity SH Rat AHD40 (single oral dose required to induce a 40 mm. average reduction in systolic blood pressure): unanesthetized SH rat
Experimental: Antihypertensive activity was determined on the basis of the observed reduction in systolic blood pressure measured according to the method of H. Kersten et al., J. Lab. and Clin. Med. 32, 1090 (1947) following a single oral medication in the unanesthetized spontaneous hypertensive rat described by Okamato et al., Japan Circulation J. 27, 282 (1963).
^a AHD40 = single oral dose required to induce a 40 mm. average

blood pressure = assay: Antihypertensive activity, sustained lowering of blood pressure, repeated oral medication, unanesthetized trained renal hypertensive dog; settings: administered once per day
Text: Antihypertensive activity was also judged on the basis of sustained reduction of blood pressure observed in the unanesthetized trained renal hypertensive dog following repeated oral medication according to the procedure described by Lape et al., Arch.
^b MED10 = minimum repeated oral daily dose required to effect a

SMILES	Dog β-blockade AED50 (approximate intravenous dose for 50% inhibition of isoproterenol-elicited heart rate increase) (β-adrenergic)	Antihypertensive activity SH Rat AHD40 (single oral dose required to induce a 40 mm. average reduction in systolic blood pressure) (systolic blood pressure)	Actual reduction in blood pressure observed at the indicated dose (systolic blood pressure; 50 mg./kg.)	other results
CC(CCc1ccc(O)cc1)NCC(O)c1ccc(O)c([S+](C)[O-])c1 (single isomer, unassigned) [Example 23C, 4-hydroxy-α-<{[4-(4-hydroxyphenyl)-1-methylpropyl]amino}methyl>-3-(methylsulfinyl)benzenemethanol cyclohexylsulfamate salt]	< 0.025 mg/kg	40.0 mg/kg		Actual percentage inhibition of heart rate increase above control level observed at the indicated dose (β-adrenergic; 0.025 mg./kg.): 80%
COc1ccc(CCC(C)NCCc2ccc(O)c([S+](C)[O-])c2)cc1 (single isomer, unassigned) [Example 29C, 4-<2-{[3-(4-methoxyphenyl)-1-methylpropyl]amino}ethyl>-2-(methylsulfinyl)phenol hydrochloride]	> 1.0 mg/kg	< 20 mg/kg		Actual percentage inhibition of heart rate increase above control level observed at the indicated dose (β-adrenergic; 1.0 mg./kg.): 43%; Renal Hypertensive Dog MED10 (minimum repeated oral daily dose for sustained lowering of blood pressure of 10% or greater) (blood pressure): > 40 mg/kg; Actual reduction in blood pressure observed at the indicated dose (systolic blood pressure; 20 mg./kg.): -54 mm. Hg
COc1ccc(CCC(C)NCC(=O)c2ccc(OC(=O)c3ccccc3)c([S+](C)[O-])c2)cc1Br (stereo not drawn) [Example 7E, 4'-hydroxy-2-{[3-(3-bromo-4-methoxyphenyl)-1-methylpropyl]-amino}-3'-(methylsulfinyl)acetophenone 4'-benzoate hydrochloride]	> 1.0 mg/kg	30 mg/kg		Actual percentage inhibition of heart rate increase above control level observed at the indicated dose (β-adrenergic; 1.0 mg./kg.): 12%; Renal Hypertensive Dog MED10 (minimum repeated oral daily dose for sustained lowering of blood pressure of 10% or greater) (blood pressure): ~.10 mg/kg
COc1ccc(CCC(C)NCC(O)c2ccc(OC(=O)c3ccccc3)c([S+](C)[O-])c2)cc1 (stereo not drawn) [Example 8, 4-hydroxy-α-<{[3-(4-methoxyphenyl)-1-methylpropyl]amino}methyl>-3-(methylsulfinyl)benzenemethanol 4-benzoate hemi-sulfate]		9 mg/kg		
COc1ccc(CC(C)NC(C)C(O)c2ccc(O)c([S+](C)[O-])c2)cc1 (stereo not drawn) [Example 15F, 4-hydroxy-α-<{1-[2-(4-methoxyphenyl)-1-methylethyl]amino}ethyl>-3-(methylsulfinyl)benzenemethanol acetate salt]		> 20.0 mg/kg		Actual reduction in blood pressure observed at the indicated dose (systolic blood pressure; 20 mg./kg.): -25 mm. Hg
COc1ccc(CCCC(C)(C)NCC(O)c2ccc(O)c([S+](C)[O-])c2)cc1 (stereo not drawn) [Example 22D, 4-hydroxy-α-<{[4-(4-methoxyphenyl)-1,1-dimethylbutyl]amino}methyl>-3-(methylsulfinyl)benzenemethanol]		> 50.0 mg/kg	-12 mm. Hg	
COc1ccc(CCC(C)NCC(O)c2ccc(O)c([S+](C)[O-])c2)cc1 (stereo not drawn) [Example 24C, hydrochloride]			-12 mm. Hg	Dog β-blockade AED50 (approximate intravenous dose for 50% inhibition of isoproterenol-elicited heart rate increase) (β-adrenergic; hydrochloride): ca. 0.50 mg./kg.; Antihypertensive activity SH Rat AHD40 (single oral dose required to induce a 40 mm. average reduction in systolic blood pressure) (systolic blood pressure; hydrochloride): > 50 mg/kg
COc1ccc(CCC(C)NCC(=O)c2ccc(OC(=O)c3ccccc3)c([S+](C)[O-])c2)cc1 (stereo not drawn) [Example 25, 4'-hydroxy-2-{[3-(4-methoxyphenyl)-1-methylpropyl]amino}-3'-(methylsulfinyl)acetophenone 4'-benzoate hydrochloride]		> 50 mg/kg	-12 mm. Hg	
COc1ccc(CCNCC(O)c2ccc(O)c([S+](C)[O-])c2)cc1OC (stereo not drawn) [Example 27C, α-<{[2-(3,4-dimethoxyphenyl)ethyl]amino}-methyl>-4-hydroxy-3-(methylsulfinyl)benzenemethanol hydrochloride]	ca. 0.10 mg./kg.	> 50 mg/kg	-26 mm. Hg	
COc1cc(CCNCC(O)c2ccc(O)c([S+](C)[O-])c2)cc(OC)c1OC (stereo not drawn) [Example 28C, 4-hydroxy-3-(methylsulfinyl)-α-<{[2-(3,4,5-trimethoxyphenyl)ethyl]-amino}methyl>benzenemethanol hydrochloride]		> 50 mg/kg	-15 mm. Hg	
CC(CCc1ccc2c(c1)OCO2)NCC(O)c1ccc(O)c([S+](C)[O-])c1 (stereo not drawn) [Example 31C, 4-hydroxy-α-<{[3-(3,4-methylenedioxyphenyl)-1-methylpropyl]amino}methyl>-3-(methylsulfinyl)benzenemethanol hydrochloride]	< 0.025 mg/kg	< 50 mg/kg	-54 mm. Hg	Actual percentage inhibition of heart rate increase above control level observed at the indicated dose (β-adrenergic; 0.025 mg./kg.): 60%
CCOCCOc1ccc(C(O)CNC(C)CCc2ccc(OC)cc2)cc1[S+](C)[O-] (stereo not drawn) [Example 32E, 4-[2-(ethoxy)ethoxy]-α-<{[3-(4-methoxyphenyl)-1-methylpropyl]amino}methyl>-3-(methylsulfinyl)benzenemethanol hydrochloride]		> 150 mg/kg		
CC(CCc1ccccc1)NCCc1ccc(O)c([S+](C)[O-])c1 (stereo not drawn) [Example 33C, 4-<2-{[1-methyl-3-phenylpropyl]amino}ethyl>-2-(methylsulfinyl)phenolhydrochloride]	1.0 mg/kg	> 50 mg/kg	-28 mm. Hg	
C[S+]([O-])c1cc(CCNC(C)(C)CCc2ccccc2)ccc1O.Cl (stereo not drawn) [Example 35C, 4-{2-[(1,1-dimethyl-3-phenylpropyl)amino]ethyl}-2-(methylsulfinyl)phenol hydrochloride]	0.6 mg/kg	> 50 mg/kg	-20 mm. Hg	
COc1ccc(CCC(C)NCCc2ccc(O)c([S+](C)[O-])c2)cc1 (stereo not drawn) [Example 36C, 4-<2-{[3-(4-methoxyphenyl)-1-methylpropyl]amino}ethyl>-2-(methylsulfinyl)phenol hydrochloride]		> 150 mg/kg		Actual reduction in blood pressure observed at the indicated dose (systolic blood pressure; 150 mg./kg., hydrochloride): -28 mm. Hg
COc1ccc(CCC(C)NCCc2ccc(O)c([S+](C)[O-])c2)cc1 (stereo not drawn) [Example 37C, 4-<2-{[3-(4-methoxyphenyl)-1-methylpropyl]amino}ethyl>-2-(methylsulfinyl)phenol hydrochloride]		> 150 mg/kg		Actual reduction in blood pressure observed at the indicated dose (systolic blood pressure; 150 mg./kg., hydrochloride): -21 mm. Hg
